Data reported in patent publication US20070254882A1, “Sulfamide Derivatives and Pharmaceutical Composition for Upregulation of Lipid Metabolism Comprising Same” (CRYSTAL GENOMICS, INC., priority 2004, published 2007).

Molecular target: T1, human PPAR α (Homo sapiens, UniProt Q07869)
T1 construct: expressed in transfected cells; host or cells: HepG2 (ATCC HB-8065) or 293T cells (ATCC CRL-1573)
T1 sequence (Q07869 239-466 limits assumed): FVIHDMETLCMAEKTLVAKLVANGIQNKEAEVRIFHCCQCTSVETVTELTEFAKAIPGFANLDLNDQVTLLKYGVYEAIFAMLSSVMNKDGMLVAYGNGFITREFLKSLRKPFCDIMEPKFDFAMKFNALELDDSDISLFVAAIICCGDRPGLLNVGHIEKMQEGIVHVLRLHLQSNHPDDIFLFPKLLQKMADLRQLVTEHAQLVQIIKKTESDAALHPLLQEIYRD
Test: Exogeneous PPAR α agonist assay (GAL4 DNA binding domain/PPAR α ligand binding domain, luciferase) in 293T cells
Format: cell-based
Set-up: scale not given here
Conditions: 25 μM compound, 48 hours, luciferase activity increase relative to the control
Experimental: Step 1) Exogeneous PPAR α Agonist Assay
Cross-activation assay of the compounds of Examples 1 to 134 against human PPAR α was carried out using a DNA construct of PPAR α including its ligand binding domain and GAL4 DNA binding domain (Sher et al., Biochemistry 32, 5598-5604, 1993) to analyze whether any of the compounds binds to the ligand binding domain of PPAR α expressed by the construct to affect the PPAR α activity. When the GAL4 DNA binding domainm which is fused with PPAR α ligand binding domain, binds to UAS (upstream activation sequence) of firefly-luciferase, the luciferase is expressed. Therefore, the effect of each of the compounds of Examples on PPAR α activation can be evaluated by analyzing the activation of luciferase.
Specifically, 2×10^4 of HepG2 (ATCC HB-8065) or 293T cells (ATCC CRL-1573) were aliquotted into each well of a 96-well plate and cultured for overnight at 37° C. in a CO2 incubator (culture condition: DMEM, 10% FBS and 1% antibiotics).
The transformation of PPAR α DNA was traced as follows. First, a mixture of the following ingredients in amounts per well; Solution A (Promega) containing 50 ng of full length human PPAR α DNA, 50 ng of firefly-luciferase construct, 5 ng of Renilla-luciferase construct, 1.0 μl of PLUS™ reagent, and 8.3 μl of a serum-free medium containing no antibiotics; was prepared and kept at room temperature for 15 min. Solution B, which contained 0.5 μl of Lipofectamine™ reagent and 9.5 μl of serum-free medium without antibiotics per well, and Solution C, which contained 50 μl of serum-free medium per well), were prepared. Solutions A, B and C were mixed together to prepare lipofectamin-DNA complex, and the mixture was kept at room temperature for 15 min. Single layer of cells on each well of a 96-well plate were washed with serum-free DMEM, 70 μl of lipofectamine-DNA complex prepared above was added thereto, the plate was incubated at 37° C. in a 5% CO2 incubator for 3 hours to transform the cells, and […] of a diluted solution of each of the compounds of Examples 1 to 134 per well was added to each well to a final concentration 25 μM, and incubated at 37° C. in a CO2 incubator for 48 hours. Then, the medium was removed, 50 μl of passive lysis buffer (Promega) was added thereto, and the plate was shook at room temperature for 20 min to lysis cells. 40 μl of Luciferase Assay reagent of Dual Luciferase Kit […] per 20 μl of cell lysis buffer was added to the plate, followed by reacting at 20° C. for 8 seconds, and 40 μl of Stop & Glo reagent (Promega) as a stop solution was added thereto to quench the reaction. The luminescence intensities of F-luciferase and R-luciferase were measured with MicroLumat Plus (Berthord Technology).

How did the “Activity at 25 μM Step 1 293T cell” value turn out when Cc1nc(-c2ccc(C(F)(F)F)cc2)oc1COc1cccc(CN(CC(=O)O)S(=O)(=O)N2CCOCC2)c1 [Example 29, [N-(morpholinyl)sulfonyl-N-[3-[[2-(4-trifluoromethylphenyl)-4-methyloxazol-5-yl]methoxy]benzyl]amino]acetic acid] was run?
The value was 2.

Cc1oc(-c2ccccc2)nc1COc1cccc(CN(CC(=O)O)S(=O)(=O)N2CCc3ccccc32)c1 [Example 30, [N-(indolinyl)sulfonyl-N-[3-[(2-phenyl-5-methyloxazol-4-yl)methoxy]benzyl]amino]acetic acid] was tested. Which “Activity at 25 μM Step 1 293T cell” value did it give?
Its value is 2.

Which “Activity at 25 μM Step 1 293T cell” value does the source give for Cc1ccc(-c2nc(COc3cccc(CN(CC(=O)O)S(=O)(=O)N4CCc5ccccc54)c3)c(C)o2)cc1 [Example 31, [N-(indolinyl)sulfonyl-N-[3-[[2-(4-methylphenyl)-5-methyloxazol-4-yl]methoxy]benzyl]amino]acetic acid] here?
Its value is 3.

How did the “Activity at 25 μM Step 1 293T cell” value turn out when Cc1oc(-c2ccc(C(F)(F)F)cc2)nc1COc1cccc(CN(CC(=O)O)S(=O)(=O)N2CCc3ccccc32)c1 [Example 32, [N-(indolinyl)sulfonyl-N-[3-[[2-(4-trifluoromethylphenyl)-5-methyloxazol-4-yl]methoxy]benzyl]amino]acetic acid] was run?
The value was 2.

With Cc1oc(-c2ccccc2)nc1COc1cccc(CN(CC(=O)O)S(=O)(=O)N2CCCc3ccccc32)c1 [Example 34, [N-(1,2,3,4-tetrahydroquinolinyl)sulfonyl-N-[3-[(2-phenyl-5-methyloxazol-4-yl)methoxy]benzyl]amino]acetic acid] as the compound, how does the “Activity at 25 μM Step 1 293T cell” value read?
The value was 2.

Cc1ccc(-c2nc(COc3cccc(CN(CC(=O)O)S(=O)(=O)N4CCCc5ccccc54)c3)c(C)o2)cc1 [Example 35, [N-(1,2,3,4-tetrahydroquinolinyl)sulfonyl-N-[3-[[2-(4-methylphenyl)-5-methyloxazol-4-yl]methoxy]benzyl]amino]acetic acid] was tested. Which “Activity at 25 μM Step 1 293T cell” value did it give?
The value was 2.

Cc1oc(-c2ccc(C(F)(F)F)cc2)nc1COc1cccc(CN(CC(=O)O)S(=O)(=O)N2CCCc3ccccc32)c1 [Example 36, [N-(1,2,3,4-tetraquinolinyl)sulfonyl-N-[3-[[2-(4-trifluoromethylphenyl)-5-methyloxazol-4-yl]methoxy]benzyl]amino]acetic acid] was tested. Which “Activity at 25 μM Step 1 293T cell” value did it give?
Its value is 2.

Which “Activity at 25 μM Step 1 293T cell” value does the source give for Cc1oc(-c2ccccc2)nc1COc1ccc(CN(CC(=O)O)S(=O)(=O)N(C)C)cc1 [Example 38, [N—(N,N-dimethylamino)sulfonyl-N-[4-[(2-phenyl-5-methyloxazol-4-yl)methoxy]benzyl]amino]acetic acid] here?
Its value is 2.

Which “Activity at 25 μM Step 1 293T cell” value does the source give for Cc1ccc(-c2nc(COc3ccc(CN(CC(=O)O)S(=O)(=O)N(C)C)cc3)c(C)o2)cc1 [Example 39, [N—(N,N-dimethylamino)sulfonyl-N-[4-[[2-(4-methylphenyl)-5-methyloxazol-4-yl]methoxy]benzyl]amino]acetic acid] here?
The value was 2.

For Cc1oc(-c2ccc(C(F)(F)F)cc2)nc1COc1ccc(CN(CC(=O)O)S(=O)(=O)N(C)C)cc1 [Example 40, [N—(N,N-dimethylamino)sulfonyl-N-[4-[[2-(4-trifluoromethylphenyl)-5-methyloxazol-4-yl]methoxy]benzyl]amino]acetic acid], which “Activity at 25 μM Step 1 293T cell” value is on record?
Its value is 2.

Cc1ccc(-c2nc(COc3ccc(CN(CC(=O)O)S(=O)(=O)N4CCCC4)cc3)c(C)o2)cc1 [Example 42, [N-(pyrrolidinyl)sulfonyl-N-[4-[[2-(4-methylphenyl)-5-methyloxazol-4-yl]methoxy]benzyl]amino]acetic acid] was tested. Which “Activity at 25 μM Step 1 293T cell” value did it give?
Its value is 3.

How did the “Activity at 25 μM Step 1 293T cell” value turn out when Cc1ccc(-c2nc(COc3ccc(CN(CC(=O)O)S(=O)(=O)N4CCN(C)CC4)cc3)c(C)o2)cc1 [Example 43, [N-(4-methyl-1-piperazinyl)sulfonyl-N-[4-[[2-(4-methylphenyl)-5-methyloxazol-4-yl]methoxy]benzyl]amino]acetic acid] was run?
The value was 2.

For Cc1ccc(-c2nc(COc3ccc(CN(CC(=O)O)S(=O)(=O)N4CCOCC4)cc3)c(C)o2)cc1 [Example 44, [N-(morpholinyl)sulfonyl-N-[4-[[2-(4-methylphenyl)-5-methyloxazol-4-yl]methoxy]benzyl]amino]acetic acid], which “Activity at 25 μM Step 1 293T cell” value is on record?
The value was 3.

With Cc1ccc(-c2nc(COc3ccc(CN(CC(=O)O)S(=O)(=O)N(C)c4ccccc4)cc3)c(C)o2)cc1 [Example 46, [N—[(N-methyl-N-phenyl)amino]sulfonyl-N-[4-[[2-(4-methylphenyl)-5-methyloxazol-4-yl]methoxy]benzyl]amino]acetic acid] as the compound, how does the “Activity at 25 μM Step 1 293T cell” value read?
The value was 2.

Cc1oc(-c2ccc(C(F)(F)F)cc2)nc1COc1ccc(CN(CC(=O)O)S(=O)(=O)N(C)c2ccccc2)cc1 [Example 47, [N—[(N-methyl-N-phenyl)amino]sulfonyl-N-[4-[[2-(4-trifluoromethylphenyl)-5-methyloxazol-4-yl]methoxy]benzyl]amino]acetic acid] was tested. Which “Activity at 25 μM Step 1 293T cell” value did it give?
Its value is 2.

How did the “Activity at 25 μM Step 1 293T cell” value turn out when Cc1oc(-c2cccs2)nc1COc1ccc(CN(CC(=O)O)S(=O)(=O)N(C)c2ccccc2)cc1 [Example 48, [N—[(N-methyl-N-phenyl)amino]sulfonyl-N-[4-[[2-(thiophen-2-yl)-5-methyloxazol-4-yl]methoxy]benzyl]amino]acetic acid] was run?
The value was 2.

Which “Activity at 25 μM Step 1 293T cell” value does the source give for Cc1oc(-c2ccccc2)nc1COc1ccc(CN(CC(=O)O)S(=O)(=O)N(C)c2ccc(Cl)cc2)cc1 [Example 49, [N—[[N-methyl-N-(4-chlorophenyl)]amino]sulfonyl-N-[4-[(2-phenyl-5-methyloxazol-4-yl)methoxy]benzyl]amino]acetic acid] here?
Its value is 3.

Cc1ccc(-c2nc(COc3ccc(CN(CC(=O)O)S(=O)(=O)N(C)c4ccc(Cl)cc4)cc3)c(C)o2)cc1 [Example 50, [N—[[N-methyl-N-(4-chlorophenyl)]amino]sulfonyl-N-[4-[[2-(4-methylphenyl)-5-methyloxazol-4-yl]methoxy]benzyl]amino]acetic acid] was tested. Which “Activity at 25 μM Step 1 293T cell” value did it give?
Its value is 2.

For Cc1oc(-c2ccccc2)nc1COc1ccc(CN(CC(=O)O)S(=O)(=O)N2CCc3ccccc32)cc1 [Example 53, [N-(indolinyl)sulfonyl-N-[4-[(2-phenyl-5-methyloxazol-4-yl)methoxy]benzyl]amino]acetic acid], which “Activity at 25 μM Step 1 293T cell” value is on record?
The value was 2.

Which “Activity at 25 μM Step 1 293T cell” value does the source give for Cc1ccc(-c2nc(COc3ccc(CN(CC(=O)O)S(=O)(=O)N4CCc5ccccc54)cc3)c(C)o2)cc1 [Example 54, [N-(indolinyl)sulfonyl-N-[4-[[2-(4-methylphenyl)-5-methyloxazol-4-yl]methoxy]benzyl]amino]acetic acid] here?
The value was 2.

How did the “Activity at 25 μM Step 1 293T cell” value turn out when Cc1oc(-c2ccc(C(F)(F)F)cc2)nc1COc1ccc(CN(CC(=O)O)S(=O)(=O)N2CCc3ccccc32)cc1 [Example 55, [N-(indolinyl)sulfonyl-N-[4-[[2-(4-trifluoromethylphenyl)-5-methyloxazol-4-yl]methoxy]benzyl]amino]acetic acid] was run?
The value was 2.

Which “Activity at 25 μM Step 1 293T cell” value does the source give for Cc1ccc(-c2nc(COc3ccc(CN(CC(=O)O)S(=O)(=O)N4CCCc5ccccc54)cc3)c(C)o2)cc1 [Example 58, [N-(1,2,3,4-tetraquinolinyl)sulfonyl-N-[4-[[2-(4-methylphenyl)-5-methyloxazol-4-yl]methoxy]benzyl]amino]acetic acid] here?
The value was 4.

For Cc1oc(-c2ccc(C(F)(F)F)cc2)nc1COc1ccc(CN(CC(=O)O)S(=O)(=O)N2CCCc3ccccc32)cc1 [Example 59, [N-(1,2,3,4-tetrahydroquinolinyl)sulfonyl-N-[4-[[2-(4-trifluoromethylphenyl)-5-methyloxazol-4-yl]methoxy]benzyl]amino]acetic acid], which “Activity at 25 μM Step 1 293T cell” value is on record?
Its value is 3.

Which “Activity at 25 μM Step 1 293T cell” value does the source give for Cc1oc(-c2ccccc2)nc1CCOc1cccc(CN(CC(=O)O)S(=O)(=O)N(C)C)c1 [Example 61, [N—(N,N-dimethylamino)sulfonyl-N-[3-[2-(2-phenyl-5-methyloxazol-4-yl)ethoxy]benzyl]amino]acetic acid] here?
Its value is 2.
